What was measured:
[1] = Antiproliferative activity against human HCT15 cells after 48 hrs by sulforhodamine B assay; format: functional; conditions: HCT-15, 48 h
[2] = Antiproliferative activity against human SK-MEL-2 cells after 48 hrs by sulforhodamine B assay; format: functional; conditions: SK-MEL-2, 48 h
[3] = Antiproliferative activity against human MOLT4 cells after 48 hrs by sulforhodamine B assay; format: functional; conditions: MOLT-4, 48 h
[4] = Antiproliferative activity against human Caki1 cells after 48 hrs by sulforhodamine B assay; format: functional; conditions: CAKI-1, 48 h
[5] = Antiproliferative activity against human RPMI8226 cells after 48 hrs by sulforhodamine B assay; format: functional; conditions: RPMI-8226, 48 h
MDA-MB-231 [6] = assay: Effect on cell cycle regulatory protein in human MDA-MB-231 cells assessed as cdc2 level at 5 uM after 48 hrs by Western blot analysis relative to control; format: functional
[7] = Cell cycle arrest in human MDA-MB-231 cells assessed as accumulation at G2/M phase at 5 uM after 72 hrs by propidium iodide staining based flow cytometric analysis (reference value: 19.7%); format: functional
[8] = Antiproliferative activity against human HCC2998 cells after 48 hrs by sulforhodamine B assay; format: functional; conditions: HCC 2998, 48 h
[9] = Antiproliferative activity against human IGROV1 cells after 48 hrs by sulforhodamine B assay; format: functional; conditions: IGROV-1, 48 h
[10] = Antiproliferative activity against human M14 cells after 48 hrs by sulforhodamine B assay; format: functional; conditions: M14, 48 h
[11] = Antiproliferative activity against human NCI-H322M cells after 48 hrs by sulforhodamine B assay; format: functional
[12] = Cytotoxicity against human MDA-MB-231 cells assessed as inhibition of cell viability at 5 uM after 24 hrs by MTT assay relative to control; format: functional; conditions: MDA-MB-231, 24 h
[13] = Cell cycle arrest in human MDA-MB-231 cells assessed as accumulation at G2/M phase at 10 uM after 72 hrs by propidium iodide staining based flow cytometric analysis (reference value: 19.7%); format: functional
[14] = Antiproliferative activity against human SN12C cells after 48 hrs by sulforhodamine B assay; format: functional
[15] = Cell cycle arrest in human MDA-MB-231 cells assessed as accumulation at G2/M phase at 10 uM after 48 hrs by propidium iodide staining based flow cytometric analysis (reference value: 19.5%); format: functional
[16] = Antiproliferative activity against human NCI-H460 cells after 48 hrs by sulforhodamine B assay; format: functional; conditions: NCI-H460, 48 h
[17] = Antiproliferative activity against human HL-60(TB) cells after 48 hrs by sulforhodamine B assay; format: functional; conditions: HL-60, 48 h
[18] = Antiproliferative activity against human ACHN cells after 48 hrs by sulforhodamine B assay; format: functional
MDA-MB-231 [19] = assay: Cytotoxicity against human MDA-MB-231 cells assessed as inhibition of cell viability after 48 hrs by MTT assay relative to control; format: functional, cell-based
[20] = Antiproliferative activity against human SF539 cells after 48 hrs by sulforhodamine B assay; format: functional; conditions: SF-539, 48 h
[21] = Antiproliferative activity against human RXF393 cells after 48 hrs by sulforhodamine B assay; format: functional; conditions: RXF 393, 48 h
[22] = Cell cycle arrest in human MDA-MB-231 cells assessed as accumulation at G2/M phase at 5 uM after 48 hrs by propidium iodide staining based flow cytometric analysis (reference value: 19.5%); format: functional
[23] = Antiproliferative activity against human OVCAR5 cells after 48 hrs by sulforhodamine B assay; format: functional; conditions: OVCAR-5, 48 h
[24] = Antiproliferative activity against human MDA-MB-231 cells after 48 hrs by sulforhodamine B assay; format: functional; conditions: MDA-MB-231, 48 h
MDA-MB-231 [25] = assay: Effect on cell cycle regulatory protein in human MDA-MB-231 cells assessed as p21 level at 5 uM after 24 hrs by Western blot analysis relative to control; format: functional
[26] = Antiproliferative activity against human MALME-3M cells after 48 hrs by sulforhodamine B assay; format: functional
[27] = Antiproliferative activity against human DU145 cells after 48 hrs by sulforhodamine B assay; format: functional; conditions: DU-145, 48 h
[28] = Antiproliferative activity against human A549/ATCC cells after 48 hrs by sulforhodamine B assay; format: functional; conditions: A549, 48 h
MDA-MB-231 [29] = assay: Effect on cell cycle regulatory protein in human MDA-MB-231 cells assessed as p21 level at 10 uM after 24 hrs by Western blot analysis relative to control; format: functional
MDA-MB-231 [30] = assay: Effect on cell cycle regulatory protein in human MDA-MB-231 cells assessed as cdc2 level at 10 uM after 24 hrs by Western blot analysis relative to control; format: functional
[31] = Antiproliferative activity against human Hs 578T cells after 48 hrs by sulforhodamine B assay; format: functional
MDA-MB-231 [32] = assay: Effect on cell cycle regulatory protein in human MDA-MB-231 cells assessed as cyclin B1 level at 10 uM after 24 hrs by Western blot analysis relative to control; format: functional
MDA-MB-231 [33] = assay: Effect on cell cycle regulatory protein in human MDA-MB-231 cells assessed as p21 level at 5 uM after 48 hrs by Western blot analysis relative to control; format: functional
[34] = Antiproliferative activity against human NCI-H226 cells after 48 hrs by sulforhodamine B assay; format: functional; conditions: NCI-H226, 48 h
[35] = Antiproliferative activity against human A498 cells after 48 hrs by sulforhodamine B assay; format: functional; conditions: A498, 48 h
[36] = read-out: LC50 (the source's name)

`C=C1c2c(C)nn(-c3ccc(C#CCO[C@@H]4O[C@H](CO)[C@@H](O)[C@H](O)[C@H]4O)cc3)c2N(C)C23CC1C1(C)c4c(C)nn(-c5ccc(C#CCO[C@@H]6O[C@H](CO)[C@@H](O)[C@H](O)[C@H]6O)cc5)c4N(C)C(C)(CC12)C3` (stereo not given in full) gave a GI50 [1] of 1.57 µM, a TGI [1] of 3.45 µM and a GI50 [2] of 1.76 µM. The TGI [2] was 3.39 µM, the CC50 [2, 36] was 6.55 µM and the GI50 [3] was 1.28 µM. For the same compound, the TGI [3] was 3.88 µM, the CC50 [3, 36] was 100 µM and the GI50 [4] was 2.81 µM. The TGI [4] was 11.6 µM, the CC50 [4, 36] was 49 µM and the GI50 [5] was 0.29 µM. For the same compound, the TGI [5] was 1.72 µM, the CC50 [5, 36] was 100 µM and the “fold change (FC)” value (MDA-MB-231 [6]) was 1.5. It also gave an Activity [7] of 18.7%, a GI50 [8] of 1.57 µM and a TGI [8] of 3.15 µM. It also gave a CC50 [8, 36] of 6.32 µM, a GI50 [9] of 1.56 µM and a TGI [9] of 3.95 µM. The CC50 [9, 36] was 10.1 µM, the GI50 [10] was 1.67 µM and the TGI [10] was 3.44 µM. It also gave a CC50 [10, 36] of 7.06 µM, a GI50 [11] of 1.76 µM and a TGI [11] of 3.75 µM. It also gave a CC50 [11, 36] of 8.01 µM, an inhibition at 5 µM [12] of 65% and an Activity [13] of 31.1%. It also gave a GI50 [14] of 1.38 µM, a TGI [14] of 3.72 µM and a CC50 [14, 36] of 9.99 µM. The Activity [15] was 31.1%, the GI50 [16] was 1.69 µM and the TGI [16] was 3.85 µM. For the same compound, the CC50 [16, 36] was 8.77 µM, the GI50 [17] was 2.07 µM and the TGI [17] was 4.43 µM. For the same compound, the CC50 [17, 36] was 9.49 µM, the GI50 [18] was 2.42 µM and the TGI [18] was 10.6 µM. The CC50 [18, 36] was 32.5 µM, the inhibition (MDA-MB-231 [19]) was “Dose-dependent effect” and the GI50 [20] was 1.78 µM. For the same compound, the TGI [20] was 3.33 µM, the CC50 [20, 36] was 6.22 µM and the GI50 [21] was 1.62 µM. It also gave a TGI [21] of 3.52 µM, a CC50 [21, 36] of 7.63 µM and an Activity [22] of 30.6%. It also gave a GI50 [23] of 1.78 µM, a TGI [23] of 3.54 µM and a CC50 [23, 36] of 7.05 µM. For the same compound, the GI50 [24] was 1.5 µM, the TGI [24] was 3.06 µM and the CC50 [24, 36] was 6.23 µM. The “fold change (FC)” value (MDA-MB-231 [25]) was 0.1, the GI50 [26] was 1.87 µM and the TGI [26] was 3.66 µM. The CC50 [26, 36] was 7.17 µM, the GI50 [27] was 1.97 µM and the TGI [27] was 5.16 µM. The CC50 [27, 36] was 17.3 µM, the GI50 [28] was 1.68 µM and the TGI [28] was 4.09 µM. The CC50 [28, 36] was 9.98 µM, the “fold change (FC)” value (MDA-MB-231 [29]) was 1 and the “fold change (FC)” value (MDA-MB-231 [30]) was 0.8. The GI50 [31] was 0.47 µM, the TGI [31] was 9.85 µM and the CC50 [31, 36] was 100 µM. For the same compound, the “fold change (FC)” value (MDA-MB-231 [32]) was 0.7, the “fold change (FC)” value (MDA-MB-231 [33]) was 0.2 and the GI50 [34] was 1.62 µM. It also gave a TGI [34] of 3.7 µM, a CC50 [34, 36] of 8.46 µM and a GI50 [35] of 1.5 µM. For the same compound, the TGI [35] was 3.18 µM and the CC50 [35, 36] was 6.72 µM.

From ChEMBL document CHEMBL3872201, “Synthesis and antiproliferative activity of a natural like glycoconjugate polycyclic compound” (2016)
